The target of this assay is T1, USP28 (His-tagged USP28-FL-mammalian) (Homo sapiens, UniProt Q96RU2).
T1 construct: Expression of USP28 (1-1077)-TEV-6*His (pTT5 vector); made in house; host or cells: Expi293f cells (pTT5 vector)
T1 sequence (Q96RU2 1-1077): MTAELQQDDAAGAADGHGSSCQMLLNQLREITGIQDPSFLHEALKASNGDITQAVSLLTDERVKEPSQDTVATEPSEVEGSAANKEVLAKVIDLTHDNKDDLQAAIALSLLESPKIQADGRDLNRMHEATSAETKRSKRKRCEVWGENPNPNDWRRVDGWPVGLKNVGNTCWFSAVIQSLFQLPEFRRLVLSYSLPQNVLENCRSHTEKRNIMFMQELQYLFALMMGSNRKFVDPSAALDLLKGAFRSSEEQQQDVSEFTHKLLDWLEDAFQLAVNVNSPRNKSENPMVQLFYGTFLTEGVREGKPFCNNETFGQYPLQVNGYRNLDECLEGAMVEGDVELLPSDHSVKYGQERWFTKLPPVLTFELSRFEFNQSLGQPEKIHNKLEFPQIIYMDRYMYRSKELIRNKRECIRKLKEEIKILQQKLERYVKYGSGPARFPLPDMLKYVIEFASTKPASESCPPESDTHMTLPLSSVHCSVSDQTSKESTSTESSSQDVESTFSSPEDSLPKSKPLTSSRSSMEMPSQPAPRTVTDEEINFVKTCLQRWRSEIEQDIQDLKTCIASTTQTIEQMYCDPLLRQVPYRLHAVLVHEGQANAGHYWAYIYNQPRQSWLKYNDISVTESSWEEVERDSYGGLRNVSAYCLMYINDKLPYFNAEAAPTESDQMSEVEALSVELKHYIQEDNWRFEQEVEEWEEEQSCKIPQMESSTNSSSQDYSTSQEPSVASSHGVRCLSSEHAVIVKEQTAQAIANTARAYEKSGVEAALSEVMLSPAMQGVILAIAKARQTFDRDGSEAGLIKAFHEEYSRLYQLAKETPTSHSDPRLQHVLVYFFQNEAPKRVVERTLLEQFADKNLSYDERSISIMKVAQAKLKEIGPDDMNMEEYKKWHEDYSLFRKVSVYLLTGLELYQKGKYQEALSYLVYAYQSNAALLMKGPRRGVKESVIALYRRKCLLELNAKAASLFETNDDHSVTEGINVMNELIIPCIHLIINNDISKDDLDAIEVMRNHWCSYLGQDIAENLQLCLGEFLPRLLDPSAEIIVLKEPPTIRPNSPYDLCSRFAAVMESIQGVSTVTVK
In words: Ubiquitin-Rhodamine 110 Assay for USP28 Activity, Example A-1(a). The class given is biochemical. Conditions: Ubiquitin-Rhodamine 110 assay, Example A-1(a); read-out: USP28 A-1(a) IC50 range. The gist of the method: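 IC50 from 4-parameter logistic fit of percent inhibition versus no-enzyme and DMSO controls; compounds 25 μM to 1.3 nM, 3-fold. Ub-Rh110 cleavage (25 nM, below Km) by […] mammalian-expressed USP28-FL-His ran 45 min at room temperature, stopped with 10 mM citric acid, read ex 485/em 535.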
As for `CO[C@H]1CN(c2ccc3c(c2)CC[C@H](NC(=O)c2cnc4c(c2)[C@H]2C[C@H]2CN4)C3)C[C@@H]1N` [Example 190, (6aR,7aS)-N-[(2S)-6-[(3S,4S)-3-amino-4-methoxypyrrolidin-1-yl]-1,2,3,4-tetrahydronaphthalen-2-yl]-5H,6H,6aH,7H,7aH-cyclopropa[c]1,8-naphthyridine-2-carboxamide], the IC50 was more than 2000 nM.

On to `CO[C@@]1(C)CN(c2ccc3c(n2)CC[C@H](NC(=O)c2sc4nc(C)ccc4c2N)C3)C[C@@H]1N` [Example 210, 3-amino-N-[(6S)-2-[(3S,4S)-4-amino-3-methoxy-3-methylpyrrolidin-1-yl]-5,6,7,8-tetrahydroquinolin-6-yl]-6-methylthieno[2,3-b]pyridine-2-carboxamide], for which the IC50 fell in the range of 50 to 200 nM.

Turning to `CO[C@@H]1CN(c2ccc3c(n2)CC[C@H](NC(=O)c2sc4nc(C)ccc4c2N)C3)C[C@@]1(C)N` [Example 240, 3-amino-N-[(6S)-2-[(3R,4R)-3-amino-4-methoxy-3-methylpyrrolidin-1-yl]-5,6,7,8-tetrahydroquinolin-6-yl]-6-methylthieno[2,3-b]pyridine-2-carboxamide], the IC50 was 200 to 2000 nM.

`CO[C@H]1CN(c2ccc3c(n2)OC[C@H](NC(=O)c2sc4nc(C)cnc4c2N)C3)C[C@@H]1N` [Example 181, 7-amino-N-[(3R)-7-[(3S,4S)-3-amino-4-methoxypyrrolidin-1-yl]-2H,3H,4H-pyrano[2,3-b]pyridin-3-yl]-3-methylthieno[2,3-b]pyrazine-6-carboxamide]: the IC50 lay in the range of 200 to 2000 nM.

As to `CO[C@H]1CN(c2ccc3c(c2C#N)CC[C@H](NC(=O)c2sc4nc(C)ccc4c2N)C3)C[C@@H]1N` [Example 178, 3-amino-N-[(2S)-6-[(3S,4S)-3-amino-4-methoxypyrrolidin-1-yl]-5-cyano-1,2,3,4-tetrahydronaphthalen-2-yl]-6-methylthieno[2,3-b]pyridine-2-carboxamide], the IC50 fell in the range of 1 to 50 nM.

Regarding `Cc1ccc2c(N)c(C(=O)N[C@H]3COc4cc(N5CCC[C@H]6CNC[C@H]65)ccc4C3)sc2n1` [Example 243, N-[(3R)-7-[(4aS,7aS)-octahydro-1H-pyrrolo[3,4-b]pyridin-1-yl]-3,4-dihydro-2H-1-benzopyran-3-yl]-3-amino-6-methylthieno[2,3-b]pyridine-2-carboxamide], the IC50 is 1 to 50 nM.

In the case of `COC[C@@H]1CN(c2cc(F)c3c(c2)OC[C@H](NC(=O)c2sc4nc(C)ccc4c2N)C3)C[C@@H]1N` [Example 250, 3-amino-N-[(3R)-7-[(3R,4R)-3-amino-4-(methoxymethyl)pyrrolidin-1-yl]-5-fluoro-3,4-dihydro-2H-1-benzopyran-3-yl]-6-methylthieno[2,3-b]pyridine-2-carboxamide], the IC50 lay within 1 to 50 nM.

For the molecule `Cc1cc(C)c2c(N)c(C(=O)N[C@H]3COc4c(C#N)c(N5CC6CCC(C5)N6)cc(F)c4C3)sc2n1` [Example 230, 3-amino-N-[(3R)-8-cyano-7-{3,8-diazabicyclo[3.2.1]octan-3-yl}-5-fluoro-3,4-dihydro-2H-1-benzopyran-3-yl]-4,6-dimethylthieno[2,3-b]pyridine-2-carboxamide], the IC50 was 1 to 50 nM.

On to `N#Cc1c(N2CC3CCC(C2)N3)cc(F)c2c1OC[C@H](NC(=O)c1cnc3c(c1)[C@@H]1C[C@@H]1CN3)C2` [Example 228, (6aS,7aR)-N-[(3R)-8-cyano-7-{3,8-diazabicyclo[3.2.1]octan-3-yl}-5-fluoro-3,4-dihydro-2H-1-benzopyran-3-yl]-5H,6H,6aH,7H,7aH-cyclopropa[c]1,8-naphthyridine-2-carboxamide], for which the IC50 fell in the range of 200 to 2000 nM.

`Cc1ccc2c(N)c(C(=O)N[C@H]3COc4cc(N5C[C@H](N)C6(COC6)C5)ccc4C3)sc2n1` [Example 258, 3-amino-N-[(3R)-7-[(8R)-8-amino-2-oxa-6-azaspiro[3.4]octan-6-yl]-3,4-dihydro-2H-1-benzopyran-3-yl]-6-methylthieno[2,3-b]pyridine-2-carboxamide]: the IC50 lay in the range of 1 to 50 nM.

Turning to `Cc1ccc2c(N)c(C(=O)N[C@H]3COc4cc(N5CC[C@@H]6CC[C@H](N)C[C@@H]65)ccc4C3)sc2n1` [Example 234, N-[(3R)-7-[(3aS,6S,7aS)-6-amino-octahydro-1H-indol-1-yl]-3,4-dihydro-2H-1-benzopyran-3-yl]-3-amino-6-methylthieno[2,3-b]pyridine-2-carboxamide], the IC50 fell in the range of 1 to 50 nM.

For the molecule `Cc1ccc2c(N)c(C(=O)N[C@H]3COc4cc(N5C[C@@H](N)C6(COC6)C5)ccc4C3)sc2n1` [Example 259, 3-amino-N-[(3R)-7-[(8S)-8-amino-2-oxa-6-azaspiro[3.4]octan-6-yl]-3,4-dihydro-2H-1-benzopyran-3-yl]-6-methylthieno[2,3-b]pyridine-2-carboxamide], the IC50 is 1 to 50 nM.

As to `O=C(N[C@H]1CCc2cc(N3CC4CCC(C3)N4)cc(F)c2C1)c1cnc2c(c1)[C@@H]1C[C@@H]1CN2` [Example 191, (6aS,7aR)-N-[(2S)-6-{3,8-diazabicyclo[3.2.1]octan-3-yl}-8-fluoro-1,2,3,4-tetrahydronaphthalen-2-yl]-5H,6H,6aH,7H,7aH-cyclopropa[c]1,8-naphthyridine-2-carboxamide], the IC50 is more than 2000 nM.

`Cc1ccc2c(N)c(C(=O)N[C@H]3COc4cc(N5CC[C@@H]6CCNC[C@@H]65)ccc4C3)sc2n1` [Example 225]: the IC50 was 1 to 50 nM.

In the case of `Cc1ccc2c(N)c(C(=O)N[C@H]3CCc4nc(N5CC[C@@H]6CNC[C@@H]65)ccc4C3)sc2n1` [Example 217, N-[(6S)-2-[(3aR,6aR)-octahydropyrrolo[2,3-c]pyrrol-1-yl]-5,6,7,8-tetrahydroquinolin-6-yl]-3-amino-6-methylthieno[2,3-b]pyridine-2-carboxamide], the IC50 lay within 1 to 50 nM.

For `Cc1ccc2c(N)c(C(=O)N[C@H]3Cc4ccc(N5CCNCC5)nc4[C@H](C)C3)sc2n1` [Example 208, 3-amino-6-methyl-N-[(6R,8R)-8-methyl-2-(piperazin-1-yl)-5,6,7,8-tetrahydroquinolin-6-yl]thieno[2,3-b]pyridine-2-carboxamide], the IC50 is 1 to 50 nM.

Source of the values: patent US11524966B1 (Valo Early Discovery, Inc., priority 2017, dated 2022).
